Data: ChEMBL document CHEMBL3046253, “Design, synthesis and in vitro PDE4 inhibition activity of certain quinazolinone derivatives for treatment of asthma” (Med Chem Res, 2012)

Target: 3',5'-cyclic-AMP phosphodiesterase 4B (Homo sapiens) (UniProt Q07343)
Test: Inhibition of PDE4B2 (unknown origin) using FAM-cAMP as substrate at 10 uM after 60 min by fluorescence polarization assay

Sequence of 3',5'-cyclic-AMP phosphodiesterase 4B (Homo sapiens) (Q07343 whole entry): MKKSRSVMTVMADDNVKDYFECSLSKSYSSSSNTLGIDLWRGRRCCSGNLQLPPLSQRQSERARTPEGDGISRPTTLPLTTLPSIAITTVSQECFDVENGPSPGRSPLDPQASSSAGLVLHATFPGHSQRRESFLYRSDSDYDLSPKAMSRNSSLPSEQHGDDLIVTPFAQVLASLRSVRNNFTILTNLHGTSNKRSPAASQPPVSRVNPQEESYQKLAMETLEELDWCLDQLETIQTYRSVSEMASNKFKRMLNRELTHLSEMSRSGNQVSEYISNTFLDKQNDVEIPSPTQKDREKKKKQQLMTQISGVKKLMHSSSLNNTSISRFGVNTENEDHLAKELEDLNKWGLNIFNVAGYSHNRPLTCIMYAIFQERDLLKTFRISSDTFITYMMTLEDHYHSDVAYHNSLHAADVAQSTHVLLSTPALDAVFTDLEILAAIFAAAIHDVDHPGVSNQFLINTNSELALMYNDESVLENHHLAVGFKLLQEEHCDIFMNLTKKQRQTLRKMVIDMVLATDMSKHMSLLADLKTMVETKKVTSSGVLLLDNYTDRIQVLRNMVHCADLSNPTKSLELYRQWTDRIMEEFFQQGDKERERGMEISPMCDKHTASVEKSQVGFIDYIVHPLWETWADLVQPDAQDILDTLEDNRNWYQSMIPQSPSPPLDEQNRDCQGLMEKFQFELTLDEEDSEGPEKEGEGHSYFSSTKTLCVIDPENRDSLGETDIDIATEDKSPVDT

Row | inhibition [%] | SMILES
1 | 6 | CCCCn1c(=O)c2ccccc2n2c(-c3ccc(N(C)C)cc3)nnc12
2 | 15 | CCCCN1C(=O)c2ccccc2NC1c1ccc(O)c(OC)c1 (stereo not given)
3 | 62 | CCCCn1c(=O)c2ccccc2n2c(-c3ccc(O)c(OC)c3)nnc12
4 | 90 | COc1ccc(C2CNC(=O)C2)cc1OC1CCCC1 (stereo not given)
5 | 15 | CCCCN1C(=O)c2ccccc2NC1c1cccc([N+](=O)[O-])c1 (stereo not given)
6 | 11 | CCCCn1c(N/N=C/c2cccc(O)c2)nc2ccccc2c1=O
7 | 44 | CCCCn1c(=O)c2ccccc2n2c(-c3cccc([N+](=O)[O-])c3)nnc12
8 | 44 | CCCCn1c(=O)c2ccccc2n2c(-c3cccc(O)c3)nnc12
9 | 19 | CCCCn1c(N/N=C/c2ccc(N(C)C)cc2)nc2ccccc2c1=O
10 | 7 | CCCCN1C(=O)c2ccccc2NC1c1ccc(N(C)C)cc1 (stereo not given)
